Laboratory results reported in ChEMBL document CHEMBL1144896 (2003).

Columns and labels:
[1] = tested on: BJ; test: Compound was tested for human telomerase reverse transcriptase-SEAP (hTERT-SEAP) activity in immortalized hTERT-BJI at 18 uM concentration; format: functional
[2] = tested on: NCI-H1299; test: Compound was tested for human telomerase reverse transcriptase-SEAP (hTERT-SEAP) activity in non-small cell lung cancer H1299 cell at 180.0 uM concentration; format: functional
[3] = tested on: BJ; test: pPCMV-SEAP (cytomegalovirus-SEAP) activity in immortalized hTERT-BJ1 at 180 uM concentration and level of cell viability determined in MTT assay; format: functional, Homo sapiens
[4] = tested on: BJ; test: pPCMV-SEAP (cytomegalovirus-SEAP) activity in immortalized hTERT-BJ1 at 1.8 uM concentration and level of cell viability determined in MTT assay; format: functional, Homo sapiens
[5] = tested on: NCI-H1299; test: hTERT-SEAP (Human telomerase reverse transcriptase-SEAP) activity in non-small cell lung cancer H1299 cell at 180.0 uM concentration and level of cell viability determined in MTT assay; format: functional
[6] = tested on: BJ; test: Compound was tested for cytomegalovirus or (pPCMV-SEAP) activity in immortalized hTERT-BJ1 at 180 uM concentration; format: functional, Homo sapiens
[7] = tested on: NCI-H1299; test: Compound was tested for human telomerase reverse transcriptase-SEAP (hTERT-SEAP) activity in non-small cell lung cancer H1299 cell at 1.8 uM concentration; format: functional
[8] = tested on: BJ; test: pPCMV-SEAP (cytomegalovirus-SEAP) activity in immortalized hTERT-BJ1 at 18 uM concentration and level of cell viability determined in MTT assay; format: functional, Homo sapiens
[9] = tested on: NCI-H1299; test: hTERT-SEAP (Human telomerase reverse transcriptase-SEAP) activity in non-small cell lung cancer H1299 cell at 1.8 uM concentration and level of cell viability determined in MTT assay; format: functional
[10] = tested on: BJ; test: Compound was tested for cytomegalovirus or (pPCMV-SEAP) activity in immortalized hTERT-BJ1 at 1.8 uM concentration; format: functional, Homo sapiens
[11] = tested on: BJ; test: hTERT-SEAP (Human telomerase reverse transcriptase-SEAP) activity in immortalized hTERT-BJI at 18 uM concentration and level of cell viability determined in MTT assay; format: functional
[12] = tested on: NCI-H1299; test: hTERT-SEAP (Human telomerase reverse transcriptase-SEAP) activity in non-small cell lung cancer H1299 cell at 18 uM concentration and level of cell viability determined in MTT assay; format: functional
[13] = tested on: NCI-H1299; test: Compound was tested for human telomerase reverse transcriptase-SEAP (hTERT-SEAP) activity in non-small cell lung cancer H1299 cell at 18 uM concentration; format: functional
[14] = tested on: BJ; test: Compound was tested for cytomegalovirus or (pPCMV-SEAP) activity in immortalized hTERT-BJ1 at 18 uM concentration; format: functional, Homo sapiens
[15] = tested on: BJ; test: Compound was tested for human telomerase reverse transcriptase-SEAP (hTERT-SEAP) activity in immortalized hTERT-BJI at 180.0 uM concentration; format: functional
[16] = tested on: BJ; test: hTERT-SEAP (Human telomerase reverse transcriptase-SEAP) activity in immortalized hTERT-BJI at 180.0 uM concentration and level of cell viability determined in MTT assay; format: functional
[17] = tested on: BJ; test: hTERT-SEAP (Human telomerase reverse transcriptase-SEAP) activity in immortalized hTERT-BJI at 24 uM concentration and level of cell viability determined in MTT assay; format: functional
[18] = tested on: BJ; test: Compound was tested for human telomerase reverse transcriptase-SEAP (hTERT-SEAP) activity in immortalized hTERT-BJI at 240.0 uM concentration; format: functional
[19] = tested on: NCI-H1299; test: Compound was tested for human telomerase reverse transcriptase-SEAP (hTERT-SEAP) activity in non-small cell lung cancer H1299 cell at 240.0 uM concentration; format: functional
[20] = tested on: NCI-H1299; test: hTERT-SEAP (Human telomerase reverse transcriptase-SEAP) activity in non-small cell lung cancer H1299 cell at 2.4 uM concentration and level of cell viability determined in MTT assay; format: functional
[21] = tested on: BJ; test: Compound was tested for human telomerase reverse transcriptase-SEAP (hTERT-SEAP) activity in immortalized hTERT-BJI at 24 uM concentration; format: functional
[22] = tested on: BJ; test: pPCMV-SEAP (cytomegalovirus-SEAP) activity in immortalized hTERT-BJ1 at 24 uM concentration and level of cell viability determined in MTT assay; format: functional, Homo sapiens
[23] = tested on: NCI-H1299; test: hTERT-SEAP (Human telomerase reverse transcriptase-SEAP) activity in non-small cell lung cancer H1299 cell at 240.0 uM concentration and level of cell viability determined in MTT assay; format: functional
[24] = tested on: BJ; test: Compound was tested for cytomegalovirus or (pPCMV-SEAP) activity in immortalized hTERT-BJ1 at 2.4 uM concentration; format: functional, Homo sapiens
[25] = tested on: BJ; test: pPCMV-SEAP (cytomegalovirus-SEAP) activity in immortalized hTERT-BJ1 at 240 uM concentration and level of cell viability determined in MTT assay; format: functional, Homo sapiens
[26] = tested on: BJ; test: Compound was tested for cytomegalovirus or (pPCMV-SEAP) activity in immortalized hTERT-BJ1 at 24 uM concentration; format: functional, Homo sapiens
[27] = tested on: BJ; test: Compound was tested for human telomerase reverse transcriptase-SEAP (hTERT-SEAP) activity in immortalized hTERT-BJI at 2.4 uM concentration; format: functional
[28] = tested on: NCI-H1299; test: Compound was tested for human telomerase reverse transcriptase-SEAP (hTERT-SEAP) activity in non-small cell lung cancer H1299 cell at 2.4 uM concentration; format: functional
[29] = tested on: BJ; test: pPCMV-SEAP (cytomegalovirus-SEAP) activity in immortalized hTERT-BJ1 at 2.4 uM concentration and level of cell viability determined in MTT assay; format: functional, Homo sapiens
[30] = tested on: NCI-H1299; test: Compound was tested for human telomerase reverse transcriptase-SEAP (hTERT-SEAP) activity in non-small cell lung cancer H1299 cell at 24 uM concentration; format: functional
[31] = tested on: BJ; test: hTERT-SEAP (Human telomerase reverse transcriptase-SEAP) activity in immortalized hTERT-BJI at 240.0 uM concentration and level of cell viability determined in MTT assay; format: functional
[32] = tested on: BJ; test: Compound was tested for cytomegalovirus or (pPCMV-SEAP) activity in immortalized hTERT-BJ1 at 240 uM concentration; format: functional, Homo sapiens
[33] = tested on: NCI-H1299; test: hTERT-SEAP (Human telomerase reverse transcriptase-SEAP) activity in non-small cell lung cancer H1299 cell at 24 uM concentration and level of cell viability determined in MTT assay; format: functional
[34] = tested on: BJ; test: Compound was tested for human telomerase reverse transcriptase-SEAP (hTERT-SEAP) activity in immortalized hTERT-BJI at 2.2 uM concentration; format: functional
[35] = tested on: BJ; test: pPCMV-SEAP (cytomegalovirus-SEAP) activity in immortalized hTERT-BJ1 at 2.0 uM concentration and level of cell viability determined in MTT assay; format: functional, Homo sapiens
[36] = tested on: NCI-H1299; test: Compound was tested for human telomerase reverse transcriptase-SEAP (hTERT-SEAP) activity in non-small cell lung cancer H1299 cell at 220.0 uM concentration; format: functional
[37] = tested on: BJ; test: Compound was tested for human telomerase reverse transcriptase-SEAP (hTERT-SEAP) activity in immortalized hTERT-BJI at 22 uM concentration; format: functional
[38] = tested on: BJ; test: Compound was tested for cytomegalovirus or (pPCMV-SEAP) activity in immortalized hTERT-BJ1 at 220 uM concentration; format: functional, Homo sapiens
[39] = tested on: BJ; test: Compound was tested for human telomerase reverse transcriptase-SEAP (hTERT-SEAP) activity in immortalized hTERT-BJI at 220.0 uM concentration; format: functional
[40] = tested on: NCI-H1299; test: Compound was tested for human telomerase reverse transcriptase-SEAP (hTERT-SEAP) activity in non-small cell lung cancer H1299 cell at 22 uM concentration; format: functional
[41] = tested on: BJ; test: hTERT-SEAP (Human telomerase reverse transcriptase-SEAP) activity in immortalized hTERT-BJI at 22 uM concentration and level of cell viability determined in MTT assay; format: functional
[42] = tested on: BJ; test: Compound was tested for cytomegalovirus or (pPCMV-SEAP) activity in immortalized hTERT-BJ1 at 2.0 uM concentration; format: functional, Homo sapiens
[43] = tested on: NCI-H1299; test: hTERT-SEAP (Human telomerase reverse transcriptase-SEAP) activity in non-small cell lung cancer H1299 cell at 2.2 uM concentration and level of cell viability determined in MTT assay; format: functional
[44] = tested on: NCI-H1299; test: hTERT-SEAP (Human telomerase reverse transcriptase-SEAP) activity in non-small cell lung cancer H1299 cell at 220.0 uM concentration and level of cell viability determined in MTT assay; format: functional
[45] = tested on: BJ; test: hTERT-SEAP (Human telomerase reverse transcriptase-SEAP) activity in immortalized hTERT-BJI at 220.0 uM concentration and level of cell viability determined in MTT assay; format: functional
[46] = tested on: BJ; test: hTERT-SEAP (Human telomerase reverse transcriptase-SEAP) activity in immortalized hTERT-BJI at 2.2 uM concentration and level of cell viability determined in MTT assay; format: functional
[47] = tested on: BJ; test: pPCMV-SEAP (cytomegalovirus-SEAP) activity in immortalized hTERT-BJ1 at 22 uM concentration and level of cell viability determined in MTT assay; format: functional, Homo sapiens
[48] = tested on: BJ; test: pPCMV-SEAP (cytomegalovirus-SEAP) activity in immortalized hTERT-BJ1 at 220 uM concentration and level of cell viability determined in MTT assay; format: functional, Homo sapiens
[49] = tested on: BJ; test: Compound was tested for cytomegalovirus or (pPCMV-SEAP) activity in immortalized hTERT-BJ1 at 22 uM concentration; format: functional, Homo sapiens
[50] = tested on: NCI-H1299; test: Compound was tested for human telomerase reverse transcriptase-SEAP (hTERT-SEAP) activity in non-small cell lung cancer H1299 cell at 2.2 uM concentration; format: functional

## O=C(Oc1cccc2c1C(=O)c1cccc(OC(=O)c3ccc(Cl)cc3Cl)c1C2=O)c1ccc(Cl)cc1Cl
[1]
  Relative SEAP activity: 150%
[2]
  Relative SEAP activity: 96%
[3]
  Relative viability: 108%
[4]
  Relative viability: 105%
[5]
  Relative viability: 77%
[6]
  Relative SEAP activity: 121%
[7]
  Relative SEAP activity: 100%
[8]
  Relative viability: 105%
[9]
  Relative viability: 108%
[10]
  Relative SEAP activity: 99%
[11]
  Relative viability: 102%
[12]
  Relative viability: 103%
[13]
  Relative SEAP activity: 102%
[14]
  Relative SEAP activity: 111%
[15]
  Relative SEAP activity: 160%
[16]
  Relative viability: 96%

## CC(C)(C)C(=O)Oc1cccc2c1C(=O)c1cccc(OC(=O)C(C)(C)C)c1C2=O
[17]
  Relative viability: 93%
[18]
  Relative SEAP activity: 141%
[19]
  Relative SEAP activity: 80%
[20]
  Relative viability: 106%
[21]
  Relative SEAP activity: 165%
[22]
  Relative viability: 104%
[23]
  Relative viability: 70%
[24]
  Relative SEAP activity: 102%
[25]
  Relative viability: 103%
[26]
  Relative SEAP activity: 114%
[27]
  Relative SEAP activity: 147%
[28]
  Relative SEAP activity: 105%
[29]
  Relative viability: 115%
[30]
  Relative SEAP activity: 78%
[31]
  Relative viability: 100%
[32]
  Relative SEAP activity: 141%
[33]
  Relative viability: 97%

## COc1ccc(CSc2cccc3c2C(=O)c2cccc(SCc4ccc(OC)cc4)c2C3=O)cc1
[34]
  Relative SEAP activity: 142%
[35]
  Relative viability: 116%
[36]
  Relative SEAP activity: 88%
[37]
  Relative SEAP activity: 141%
[38]
  Relative SEAP activity: 100%
[39]
  Relative SEAP activity: 118%
[40]
  Relative SEAP activity: 96%
[41]
  Relative viability: 98%
[42]
  Relative SEAP activity: 103%
[43]
  Relative viability: 89%
[44]
  Relative viability: 42%
[45]
  Relative viability: 62%
[46]
  Relative viability: 119%
[47]
  Relative viability: 67%
[48]
  Relative viability: 52%
[49]
  Relative SEAP activity: 102%
[50]
  Relative SEAP activity: 92%
